According to PubChem BioAssay (NCI):
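Dose response: 5 concentrations. Exposure: 48 h. Format: 96-well plates. Endpoint: linear interpolation; highest concentration if not reached. GI50 marks 50% less growth. At the TGI there is no net growth.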

Tests used:
Experiment in all cases: NCI-60 cell line screen, 48 h
HCT-15 colon = tested on: HCT-15 colon
SK-MEL-5 melanoma = tested on: SK-MEL-5 melanoma
SN12C renal = tested on: SN12C renal
SW-620 colon = tested on: SW-620 colon
SK-MEL-2 melanoma = tested on: SK-MEL-2 melanoma
KM12 colon = tested on: KM12 colon
M14 melanoma = tested on: M14 melanoma
786-0 renal = tested on: 786-0 renal
MOLT-4 leukemia = tested on: MOLT-4 leukemia
TK-10 renal = tested on: TK-10 renal
OVCAR-8 ovarian = tested on: OVCAR-8 ovarian
RXF 393 renal = tested on: RXF 393 renal
UACC-257 melanoma = tested on: UACC-257 melanoma
U251 CNS = tested on: U251 CNS
LOX IMVI melanoma = tested on: LOX IMVI melanoma
T-47D breast = tested on: T-47D breast
PC-3 prostate = tested on: PC-3 prostate
MCF7 breast = tested on: MCF7 breast
K-562 leukemia = tested on: K-562 leukemia
SR leukemia = tested on: SR leukemia
ACHN renal = tested on: ACHN renal
HCC-2998 colon = tested on: HCC-2998 colon
NCI-H460 lung = tested on: NCI-H460 lung
SF-539 CNS = tested on: SF-539 CNS
A549 NSCLC = tested on: A549 NSCLC
A498 renal = tested on: A498 renal
UACC-62 melanoma = tested on: UACC-62 melanoma
HT29 colon = tested on: HT29 colon
SNB-75 CNS = tested on: SNB-75 CNS
MALME-3M melanoma = tested on: MALME-3M melanoma
IGROV1 ovarian = tested on: IGROV1 ovarian
NCI-H226 lung = tested on: NCI-H226 lung
OVCAR-5 ovarian = tested on: OVCAR-5 ovarian
NCI/ADR-RES ovarian = tested on: NCI/ADR-RES ovarian
SK-OV-3 ovarian = tested on: SK-OV-3 ovarian
MDA-MB-231 breast = tested on: MDA-MB-231 breast
NCI-H23 lung = tested on: NCI-H23 lung
UO-31 renal = tested on: UO-31 renal
BT-549 breast = tested on: BT-549 breast
SF-295 CNS = tested on: SF-295 CNS
HOP-62 NSCLC = tested on: HOP-62 NSCLC
MDA-MB-435 = tested on: MDA-MB-435
OVCAR-4 ovarian = tested on: OVCAR-4 ovarian
RPMI-8226 leukemia = tested on: RPMI-8226 leukemia
COLO 205 colon = tested on: COLO 205 colon
HOP-92 NSCLC = tested on: HOP-92 NSCLC
HL-60(TB) leukemia = tested on: HL-60(TB) leukemia
CAKI-1 renal = tested on: CAKI-1 renal
DU-145 prostate = tested on: DU-145 prostate
SK-MEL-28 melanoma = tested on: SK-MEL-28 melanoma
NCI-H522 lung = tested on: NCI-H522 lung
HCT-116 colon = tested on: HCT-116 colon
CCRF-CEM leukemia = tested on: CCRF-CEM leukemia
HS 578T breast = tested on: HS 578T breast
SF-268 CNS = tested on: SF-268 CNS
SNB-19 CNS = tested on: SNB-19 CNS
EKVX NSCLC = tested on: EKVX NSCLC

CCCC(=O)NC(c1cccnc1)c1ccc2c(C)ccnc2c1O (centres undefined)
GI50 (HCT-15 colon): 539 nM | TGI (HCT-15 colon): > 100000 nM | GI50 (SK-MEL-5 melanoma): 1690 nM | TGI (SK-MEL-5 melanoma): 3650 nM | GI50 (SN12C renal): 2370 nM | TGI (SN12C renal): > 100000 nM | GI50 (SW-620 colon): 1940 nM | TGI (SW-620 colon): > 100000 nM | GI50 (SK-MEL-2 melanoma): 7090 nM | TGI (SK-MEL-2 melanoma): > 100000 nM | GI50 (KM12 colon): 2280 nM | TGI (KM12 colon): > 100000 nM | GI50 (M14 melanoma): 1160 nM | TGI (M14 melanoma): > 100000 nM | GI50 (786-0 renal): 2080 nM | TGI (786-0 renal): > 100000 nM | GI50 (MOLT-4 leukemia): 549 nM | TGI (MOLT-4 leukemia): > 100000 nM | GI50 (TK-10 renal): 3130 nM | TGI (TK-10 renal): > 100000 nM | GI50 (OVCAR-8 ovarian): 1860 nM | TGI (OVCAR-8 ovarian): > 100000 nM | GI50 (RXF 393 renal): 2790 nM | TGI (RXF 393 renal): > 100000 nM | GI50 (UACC-257 melanoma): 2460 nM | TGI (UACC-257 melanoma): > 100000 nM | GI50 (U251 CNS): 1600 nM | TGI (U251 CNS): > 100000 nM | GI50 (LOX IMVI melanoma): 697 nM | TGI (LOX IMVI melanoma): 11700 nM | GI50 (T-47D breast): 1290 nM | TGI (T-47D breast): > 100000 nM | GI50 (PC-3 prostate): 2540 nM | TGI (PC-3 prostate): > 100000 nM | GI50 (MCF7 breast): 1910 nM | TGI (MCF7 breast): > 100000 nM | GI50 (K-562 leukemia): 851 nM | TGI (K-562 leukemia): > 100000 nM | GI50 (SR leukemia): 472 nM | TGI (SR leukemia): > 100000 nM | GI50 (ACHN renal): 651 nM | TGI (ACHN renal): > 100000 nM | GI50 (HCC-2998 colon): 2680 nM | TGI (HCC-2998 colon): > 100000 nM | GI50 (NCI-H460 lung): 576 nM | TGI (NCI-H460 lung): > 100000 nM | GI50 (SF-539 CNS): 1740 nM | TGI (SF-539 CNS): > 100000 nM | GI50 (A549 NSCLC): 2150 nM | TGI (A549 NSCLC): > 100000 nM | GI50 (A498 renal): 2360 nM | TGI (A498 renal): 16800 nM | GI50 (UACC-62 melanoma): 2110 nM | TGI (UACC-62 melanoma): 20400 nM | GI50 (HT29 colon): 2210 nM | TGI (HT29 colon): > 100000 nM | GI50 (SNB-75 CNS): 3130 nM | TGI (SNB-75 CNS): > 100000 nM | GI50 (MALME-3M melanoma): 2180 nM | TGI (MALME-3M melanoma): > 100000 nM | GI50 (IGROV1 ovarian): 1870 nM | TGI (IGROV1 ovarian): > 100000 nM | GI50 (NCI-H226 lung): 2750 nM | TGI (NCI-H226 lung): > 100000 nM | GI50 (OVCAR-5 ovarian): 2870 nM | TGI (OVCAR-5 ovarian): > 100000 nM | GI50 (NCI/ADR-RES ovarian): 442 nM | TGI (NCI/ADR-RES ovarian): 77500 nM | GI50 (SK-OV-3 ovarian): 2100 nM | TGI (SK-OV-3 ovarian): > 100000 nM | GI50 (MDA-MB-231 breast): 2230 nM | TGI (MDA-MB-231 breast): > 100000 nM | GI50 (NCI-H23 lung): 2540 nM | TGI (NCI-H23 lung): > 100000 nM | GI50 (UO-31 renal): 548 nM | TGI (UO-31 renal): 41300 nM | GI50 (BT-549 breast): 3930 nM | TGI (BT-549 breast): > 100000 nM | GI50 (SF-295 CNS): 930 nM | TGI (SF-295 CNS): > 100000 nM | GI50 (HOP-62 NSCLC): 1500 nM | TGI (HOP-62 NSCLC): > 100000 nM | GI50 (MDA-MB-435): 2890 nM | TGI (MDA-MB-435): > 100000 nM | GI50 (OVCAR-4 ovarian): 995 nM | TGI (OVCAR-4 ovarian): > 100000 nM | GI50 (RPMI-8226 leukemia): 1880 nM | TGI (RPMI-8226 leukemia): > 100000 nM | GI50 (COLO 205 colon): 1270 nM | TGI (COLO 205 colon): > 100000 nM | GI50 (HOP-92 NSCLC): 6100 nM | TGI (HOP-92 NSCLC): > 100000 nM | GI50 (HL-60(TB) leukemia): 591 nM | TGI (HL-60(TB) leukemia): 5850 nM | GI50 (CAKI-1 renal): 1030 nM | TGI (CAKI-1 renal): > 100000 nM | GI50 (DU-145 prostate): 1700 nM | TGI (DU-145 prostate): > 100000 nM | GI50 (SK-MEL-28 melanoma): 2300 nM | TGI (SK-MEL-28 melanoma): > 100000 nM | GI50 (NCI-H522 lung): 2170 nM | TGI (NCI-H522 lung): > 100000 nM | GI50 (HCT-116 colon): 538 nM | TGI (HCT-116 colon): > 100000 nM | GI50 (CCRF-CEM leukemia): 568 nM | TGI (CCRF-CEM leukemia): > 100000 nM | GI50 (HS 578T breast): 8720 nM | TGI (HS 578T breast): > 100000 nM | GI50 (SF-268 CNS): 1810 nM | TGI (SF-268 CNS): > 100000 nM | GI50 (SNB-19 CNS): 3420 nM | TGI (SNB-19 CNS): > 100000 nM | GI50 (EKVX NSCLC): 892 nM | TGI (EKVX NSCLC): 20200 nM
